Patent US9650616B2, “Methods for increasing grain yield” (University of Florida Research Foundation, Inc., priority 2014, dated 2017)

Columns and labels:
[1] = target: T1, maize endosperm AGPase, large subunit variant RGRR (Q96R, D161G, A443R, S444R; numbering of SEQ ID NO: 20) (Zea mays, UniProt P55241+Q84PF5, A443R/D161G/Q96R/S444R); experiment: Apparent kinetic constants with 3-PGA, 37° C., RGRR; assay type: biochemical; conditions: read-out: ATP Km
T1 sequence (P55241 46-516 A443R/D161G/Q96R/S444R): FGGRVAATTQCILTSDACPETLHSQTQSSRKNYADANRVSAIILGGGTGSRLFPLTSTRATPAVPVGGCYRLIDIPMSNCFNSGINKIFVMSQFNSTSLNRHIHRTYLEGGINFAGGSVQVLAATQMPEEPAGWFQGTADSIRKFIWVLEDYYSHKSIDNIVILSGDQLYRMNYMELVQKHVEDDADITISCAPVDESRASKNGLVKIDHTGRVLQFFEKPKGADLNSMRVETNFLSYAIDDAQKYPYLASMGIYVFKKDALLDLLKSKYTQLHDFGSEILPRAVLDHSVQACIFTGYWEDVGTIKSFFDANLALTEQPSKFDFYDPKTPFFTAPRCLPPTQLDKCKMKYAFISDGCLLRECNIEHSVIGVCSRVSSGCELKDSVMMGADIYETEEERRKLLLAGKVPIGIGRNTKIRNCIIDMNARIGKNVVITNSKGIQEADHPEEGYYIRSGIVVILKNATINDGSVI
T1 sequence (Q84PF5 1-474): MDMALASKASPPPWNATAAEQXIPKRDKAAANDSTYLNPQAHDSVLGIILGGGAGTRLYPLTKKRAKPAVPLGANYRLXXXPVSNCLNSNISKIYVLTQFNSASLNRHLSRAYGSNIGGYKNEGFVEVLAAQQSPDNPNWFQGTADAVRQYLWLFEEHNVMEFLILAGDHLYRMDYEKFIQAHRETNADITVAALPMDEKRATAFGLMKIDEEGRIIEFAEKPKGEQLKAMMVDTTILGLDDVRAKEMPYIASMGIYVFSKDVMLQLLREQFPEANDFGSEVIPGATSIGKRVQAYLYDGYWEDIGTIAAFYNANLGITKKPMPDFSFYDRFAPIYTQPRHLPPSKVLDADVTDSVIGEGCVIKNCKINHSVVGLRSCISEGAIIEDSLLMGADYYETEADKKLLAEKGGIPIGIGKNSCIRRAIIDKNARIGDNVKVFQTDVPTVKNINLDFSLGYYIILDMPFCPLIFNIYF
Text: The small and large subunit plasmids of maize endosperm AGPase (pMONcBt2 and pMONcSh2, respectively) (Giroux et al., 1996) were expressed in E. coli AC70R1-504 cells (Iglesias et al., 1993) as previously described (Boehlein et al., 2008).
An endpoint assay was used to determine the rate of the AGPase reaction by coupling the formation of PPi to a decrease in NADH concentration (Boehlein et al., 2008). […] The Michaelis constants (Km) were obtained by varying one substrate in the presence of saturating concentrations of the second substrate. The activation constants were obtained by varying the activator at fixed levels of both substrates. All reactions were performed at 37° C. and mixes were prewarmed before starting the reaction with enzyme. […] The absorbance at 340 nm was monitored after 30 min and the amount of PPi produced was determined from a standard curve using PPi in complete reaction mixtures lacking AGPase. Blank samples contained complete reaction mixtures without enzyme and the change in absorbance between the blank and the reaction was used to calculate the amount of PPi produced. […]
The apparent Michaelis constant and maximum velocity of each reaction was calculated from a V vs. S plots using nonlinear regression analysis and the following equation, v=VmaxS/(Km+S), where v is the measured velocity, Vmax is the maximum velocity, S is the substrate concentration. […]

[2] = tested on: maize endosperm AGPase, wild type (Maize-wt); conditions: absence of 3-PGA, cited from earlier work
[3] = tested on: maize endosperm AGPase, wild type; conditions: Maize wt, presence of 3-PGA, ATP varied, Pi inhibition, P-MT; read-out: Km (ATP); cited from earlier work
[4] = tested on: maize endosperm AGPase, evolutionary mutant SH2-E (SH2E); conditions: presence of 3-PGA, ATP varied, Pi inhibition, NC, read-out: Km (ATP); cited from earlier work

For `Nc1ncnc2c1ncn2[C@@H]1O[C@H](COP(=O)(O)OP(=O)(O)OP(=O)(O)O)[C@@H](O)[C@H]1O` [ATP], the Km [1] is listed as 38 µM, the Km ([2]; apparent Km in the presence of 15 mM G-1-P, read-out: ATP Km (apparent)) is listed as 4000 µM and the kcat [2] is listed as 35.2 s⁻¹. For the same molecule, the Km [3] was 110 µM and the Km [4] was 210 µM.
